# What was measured:
# [1] = molecular target: T1, cytochrome P450 3A4 isoform (Homo sapiens, UniProt P08684); assay: Cytochrome P450 inhibition assay (midazolam hydroxylation); format: in vitro ADME; conditions: 10 μM test compound, midazolam at approximately its Km, human liver microsomes
# T1 construct: pre-incubated with human liver microsomes and NADPH; from tissue; host or cells: human liver microsomes
# Procedure, shortened: (§1)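 Percent inhibition of midazolam 1′-hydroxylation by 10 μM compound was measured, midazolam dosed at about Km. Time-dependent inhibition was probed by a 30 min preincubation of compound with human liver microsomes and NADPH ahead of substrate, compared against samples without preincubation.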
# OX1 = molecular target: T2, OX1 (Homo sapiens, UniProt O43613); assay: Orexin receptor cell-based functional assay, [Ca2+]i by FLIPR, CHO-OX1 cells; conditions: CHO-OX1 cells, [Ca2+]i by FLIPR, antagonist dose-range 0.1 nM-10 μM, EC90 of OXA; read-out: OX1
# T2 construct: expressed in transfected cells; host or cells: CHO (CHO-OX1, kept under selection antibiotic)
# T2 sequence (O43613 1-425): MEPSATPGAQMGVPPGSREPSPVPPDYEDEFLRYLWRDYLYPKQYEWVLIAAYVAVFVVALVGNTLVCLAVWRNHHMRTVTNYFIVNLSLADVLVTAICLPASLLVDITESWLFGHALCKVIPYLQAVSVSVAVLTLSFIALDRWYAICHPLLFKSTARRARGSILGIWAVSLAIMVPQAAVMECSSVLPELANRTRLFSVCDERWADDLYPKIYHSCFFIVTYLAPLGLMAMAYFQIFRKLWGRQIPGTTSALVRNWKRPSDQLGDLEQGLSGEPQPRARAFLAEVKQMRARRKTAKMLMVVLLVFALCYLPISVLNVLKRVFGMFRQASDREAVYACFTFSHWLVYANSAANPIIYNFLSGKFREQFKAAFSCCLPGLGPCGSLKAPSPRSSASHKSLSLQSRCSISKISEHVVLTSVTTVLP
# Procedure, shortened: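 Antagonist mode FLIPR calcium read in CHO-OX1 and CHO-OX2 lines. Test compounds, dosed 0.1 nM-10 μM, preincubated 30 min after 37° C dye loading with 2.5 mM probenecid (calcium4 for 30 min or calcium6 for 2 h).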
# OX2 = molecular target: T3, OX2 (Homo sapiens, UniProt O43614); assay: Orexin receptor cell-based functional assay, [Ca2+]i by FLIPR, CHO-OX2 cells; conditions: [Ca2+]i by FLIPR, antagonist dose-range 0.1 nM-10 μM, EC90 of OXA, read-out: OX2
# T3 construct: expressed in transfected cells; host or cells: CHO (CHO-OX2, kept under selection antibiotic)
# T3 sequence (O43614 1-444): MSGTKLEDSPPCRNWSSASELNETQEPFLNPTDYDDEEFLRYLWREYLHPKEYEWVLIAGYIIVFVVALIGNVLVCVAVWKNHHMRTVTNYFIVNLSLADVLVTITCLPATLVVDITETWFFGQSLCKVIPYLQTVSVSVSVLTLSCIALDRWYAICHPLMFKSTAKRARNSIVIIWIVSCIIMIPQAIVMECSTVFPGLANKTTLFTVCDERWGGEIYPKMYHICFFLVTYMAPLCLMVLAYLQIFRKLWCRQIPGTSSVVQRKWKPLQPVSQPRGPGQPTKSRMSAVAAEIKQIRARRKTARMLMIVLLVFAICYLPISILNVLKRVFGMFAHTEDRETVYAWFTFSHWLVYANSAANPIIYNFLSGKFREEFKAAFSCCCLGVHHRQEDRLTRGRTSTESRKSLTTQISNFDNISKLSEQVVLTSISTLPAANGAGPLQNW
# Description: Measurement of [Ca^2+]i using a FLIPR: CHO—OX1 or CHO—OX2 cells are seeded into black-walled clear-base 384-well plates (Costar) at a density of 20,000 cells per well in F12-K medium supplemented with 10% FBS and selection antibiotic (500 ug/ml G418 or 15 ug/ml Blasticidin) and cultured overnight. The cells are incubated with equal volume of calcium4 loading buffer (Molecular Devices, Inc.) containing 2.5 mM probenecid at 37° C. for 30 min, followed by putative OX1 or OX2 receptor antagonists (dose-range 0.1 nM-10 μM) for another 30 min.
# The cells are incubated with equal volume of calcium6 loading buffer (Molecular Devices, Inc.) containing 2.5 mM probenecid at 37° C. for 2 h, followed by test compounds (dose-range 0.1 nM-10 μM) for another 30 min.
# CYP3A4 = molecular target: T4, CYP3A4 (Homo sapiens, UniProt P08684); assay: Cytochrome P450 inhibition assay (midazolam hydroxylation); format: in vitro ADME; conditions: human, human liver microsomes, probe midazolam (hydroxylation to 1′-hydroxymidazolam), 10 μM test compound, midazolam at approximately its Km
# T4 construct: pre-incubated with human liver microsomes and NADPH; from tissue; host or cells: human liver microsomes
# Procedure, shortened: as §1
# T4 sequence (P08684 whole entry): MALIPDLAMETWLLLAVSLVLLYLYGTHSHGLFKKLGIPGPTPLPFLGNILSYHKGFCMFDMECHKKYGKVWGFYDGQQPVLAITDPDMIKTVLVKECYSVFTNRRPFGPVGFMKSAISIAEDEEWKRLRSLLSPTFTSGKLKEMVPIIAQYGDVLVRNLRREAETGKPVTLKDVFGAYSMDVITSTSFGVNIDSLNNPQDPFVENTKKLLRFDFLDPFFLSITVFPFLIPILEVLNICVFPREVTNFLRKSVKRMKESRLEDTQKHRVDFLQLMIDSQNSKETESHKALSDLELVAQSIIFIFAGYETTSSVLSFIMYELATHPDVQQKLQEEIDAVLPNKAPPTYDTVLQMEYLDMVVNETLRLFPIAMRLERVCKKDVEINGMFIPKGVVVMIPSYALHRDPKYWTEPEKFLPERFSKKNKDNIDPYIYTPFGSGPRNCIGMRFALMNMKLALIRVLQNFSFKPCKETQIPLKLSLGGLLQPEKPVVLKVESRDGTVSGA
# T1 sequence (P08684 whole entry, canonical isoform): as the sequence (P08684 whole entry) above
SMILES,% CYP3A4 Inhibition ([1]; 10 µM) [%],IC50 (OX1) [nM],% CYP3A4 Inhibition [1] [%],IC50 (OX2) [nM],inhibition at 10 µM (CYP3A4) [%]
"Cc1ccc(-n2nccn2)c(C(=O)N2CCC[C@@H](C)[C@H]2CNc2ccc(C#N)cn2)c1 [Example A46, 6-((((2S,3R)-3-Methyl-1-(5-methyl-2-(2H-1,2,3-triazol-2-yl)benzoyl)piperidin-2-yl)methyl)amino)nicotinonitrile]",53,5,–,–,–
"Cc1ccc(-n2nccn2)c(C(=O)N2CCC[C@@H](C)[C@H]2CNc2ncc(Cl)cc2F)c1 [Example A92, ((2S,3R)-2-(((5-Chloro-3-fluoropyridin-2-yl)amino)methyl)-3-methylpiperidin-1-yl)(5-methyl-2-(2H-1,2,3-triazol-2-yl)phenyl)methanone]",91,–,–,–,–
"C[C@@H]1CCCN(C(=O)c2cccc(F)c2-c2ncccn2)[C@@H]1CNc1ncc(C(F)(F)F)cn1 [Example A230, (3-Fluoro-2-(pyrimidin-2-yl)phenyl)((2S,3R)-3-methyl-2-(((5-(trifluoromethyl)pyrimidin-2-yl)amino)methyl)piperidin-1-yl)methanone]",–,5,50,–,–
"Cc1nc(C(=O)N2CCC[C@@H](C)[C@H]2CNc2nc3cc(Cl)ccc3o2)c(-c2ccc(F)cc2)s1 [Example A13, ((2S,3R)-2-(((5-Chlorobenzo[d]oxazol-2-yl)amino)methyl)-3-methylpiperidin-1-yl)(5-(4-fluorophenyl)-2-methylthiazol-4-yl)methanone]",83,–,–,–,–
"Cc1ccc(C(=O)N2CCC[C@@H](C)[C@H]2CNc2ncc(C(F)(F)F)cn2)c(-c2ncccn2)c1F [Example A359, (3-fluoro-4-methyl-2-(pyrimidin-2-yl)phenyl)((2S,3R)-3-methyl-2-(((5-(trifluoromethyl)pyrimidin-2-yl)amino)methyl)piperidin-1-yl)methanone]",–,6,–,> 5000,52
"C[C@@H]1CCCN(C(=O)c2c(F)ccc(F)c2-n2nccn2)[C@@H]1CNc1ccc(C(F)(F)F)cn1 [Example A332, (3,6-Difluoro-2-(2H-1,2,3-triazol-2-yl)phenyl)((2S,3R)-3-methyl-2-(((5-(trifluoromethyl)pyridin-2-yl)amino)methyl)piperidin-1-yl)methanone]",–,2,–,> 5000,62
"Cc1ccc(F)c(C(=O)N2CCC[C@@H](C)[C@H]2CNc2ccc(C(F)(F)F)cn2)c1-c1ncccn1 [Example A354, (6-fluoro-3-methyl-2-(pyrimidin-2-yl)phenyl)((2S,3R)-3-methyl-2-(((5-(trifluoromethyl)pyridin-2-yl)amino)methyl)piperidin-1-yl)methanone]",–,4,–,790,49
"Cc1ccc(-c2cnn(C)c2)c(C(=O)N2CCC[C@@H](C)[C@H]2CNc2nc3cc(Cl)ccc3o2)c1 [Example A40, ((2S,3R)-2-(((5-Chlorobenzo[d]oxazol-2-yl)amino)methyl)-3-methylpiperidin-1-yl)(5-methyl-2-(1-methyl-1H-pyrazol-4-yl)phenyl)methanone]",96,20,–,–,–
"Cc1cc(F)c(-c2ncccn2)c(C(=O)N2CCC[C@@H](C)[C@H]2CNc2ncc(C(F)(F)F)cn2)c1 [Example A375, (3-fluoro-5-methyl-2-(pyrimidin-2-yl)phenyl)((2S,3R)-3-methyl-2-(((5-(trifluoromethyl)pyrimidin-2-yl)amino)methyl)piperidin-1-yl)methanone]",–,8,–,170,48
"Cc1cc(F)c(-n2nccn2)c(C(=O)N2CCC[C@@H](C)[C@H]2CNc2ccc(C(F)(F)F)cn2)c1 [Example A372, (3-Fluoro-5-methyl-2-(2H-1,2,3-triazol-2-yl)phenyl)((2S,3R)-3-methyl-2-(((5-(trifluoromethyl)pyridin-2-yl)amino)methyl)piperidin-1-yl)methanone]",–,1,–,490,83
"Cc1ccc(C(=O)N2CCC[C@@H](C)[C@H]2CNc2ccc(C(F)(F)F)cn2)c(-n2nccn2)c1F [Example A356, (3-Fluoro-4-methyl-2-(2H-1,2,3-triazol-2-yl)phenyl)((2S,3R)-3-methyl-2-(((5-(trifluoromethyl)pyridin-2-yl)amino)methyl)piperidin-1-yl)methanone]",–,2,–,3900,86
"Cc1cc(F)cc(C(=O)N2CCC[C@@H](C)[C@H]2CNc2ccc(C(F)(F)F)cn2)c1-c1ncccn1 [Example A342, (5-Fluoro-3-methyl-2-(pyrimidin-2-yl)phenyl)((2S,3R)-3-methyl-2-(((5-(trifluoromethyl)pyridin-2-yl)amino)methyl)piperidin-1-yl)methanone]",–,1,–,380,83

# Other lines, results leading:
% CYP3A4 Inhibition ([1]; 10 µM) [%],IC50 (OX1) [nM],% CYP3A4 Inhibition [1] [%],IC50 (OX2) [nM],inhibition at 10 µM (CYP3A4) [%],SMILES
58,–,–,–,–,"Cc1ccc(-n2nccn2)c(C(=O)N2CCC[C@@H](C)[C@H]2CNc2ncc(F)cc2F)c1 [Example A91, ((2S,3R)-2-(((3,5-Difluoropyridin-2-yl)amino)methyl)-3-methylpiperidin-1-yl)(5-methyl-2-(2H-1,2,3-triazol-2-yl)phenyl)methanone]"
50,–,–,–,–,"Cc1nc(C(=O)N2CCC[C@@H](C)[C@H]2CNc2nc3cc(Cl)ccc3o2)c(-c2ccc(F)cc2)s1 [Example A84, ((2S,3R)-2-(((5-Chlorobenzo[d]oxazol-2-yl)amino)methyl)-3-methylpiperidin-1-yl)(5-(4-fluorophenyl)-2-methylthiazol-4-yl)methanone]"
–,2,–,2800,75,"Cc1c(F)ccc(C(=O)N2CCC[C@@H](C)[C@H]2CNc2ccc(C(F)(F)F)cn2)c1-n1nccn1 [Example A344, (4-Fluoro-3-methyl-2-(2H-1,2,3-triazol-2-yl)phenyl)((2S,3R)-3-methyl-2-(((5-(trifluoromethyl)pyridin-2-yl)amino)methyl)piperidin-1-yl)methanone]"
–,2,–,> 1000,59,"Cc1cc(F)cc(C(=O)N2CCC[C@@H](C)[C@H]2CNc2ncc(C(F)(F)F)cn2)c1-n1nccn1 [Example A349, (5-fluoro-3-methyl-2-(2H-1,2,3-triazol-2-yl)phenyl)((2S,3R)-3-methyl-2-(((5-(trifluoromethyl)pyrimidin-2-yl)amino)methyl)piperidin-1-yl)methanone]"
–,4,–,3000,60,"Cc1cc(C(=O)N2CCC[C@@H](C)[C@H]2CNc2ncc(C(F)(F)F)cn2)c(-n2nccn2)cc1F [Example A369, (4-fluoro-5-methyl-2-(2H-1,2,3-triazol-2-yl)phenyl)((2S,3R)-3-methyl-2-(((5-(trifluoromethyl)pyrimidin-2-yl)amino)methyl)piperidin-1-yl)methanone]"
–,15,–,> 5000,38,"C[C@@H]1CCCN(C(=O)c2c(F)ccc(F)c2-n2nccn2)[C@@H]1CNc1ncc(C(F)(F)F)cn1 [Example A333, (3,6-difluoro-2-(2H-1,2,3-triazol-2-yl)phenyl)((2S,3R)-3-methyl-2-(((5-(trifluoromethyl)pyrimidin-2-yl)amino)methyl)piperidin-1-yl)methanone]"

# Reference: patent publication US9440982B2 (Eolas Therapeutics, Inc., priority 2012, dated 2016)
